In PubChem BioAssay AID250 (DTP/NCI, 2004):
Values joined by “and” are separate entries in the source; they are usually repeats but may differ in a detail not shown here. Equal entries are not always repeated. Inconclusive results and toxic doses are left out.

Key:
[1] = system: BDF1 mice, L1210 leukemia sc, survival T/C; assay: NCI In Vivo Anticancer Drug Screen. Data for tumor model L1210 Leukemia (subcutaneous) in B6D2F1 (BDF1) mice; conditions: endpoint: median survival time, higher = longer survival
Summary of the method: (§1)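 Mice carrying transplanted tumors received test compounds, and survival or tumor size was measured. Values are the treated-group measurement (T) divided by that of the vehicle-treated control group (C).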

[2] = system: BDF1 mice, L1210 leukemia sc; assay: as above; conditions: endpoint: mean tumor weight, vehicle: water, higher = larger tumour
Summary of the method: as §1

O=C(NO)c1ccncc1
T/C ([1]; dose: 67.0 mg/kg/injection, schedule: Q#B X027 (ip), vehicle: water): 108 % of control
T/C ([1]; dose: 133.0 mg/kg/injection, schedule: Q#B X027 (ip), vehicle: water): 108 % of control
T/C ([1]; dose: 200.0 mg/kg/injection, schedule: Q01DX009 (ip), vehicle: water): 108 % of control
T/C ([1]; dose: 200.0 mg/kg/injection, schedule: Q#B X027 (ip), vehicle: water): 116 % of control
T/C ([1]; dose: 267.0 mg/kg/injection, schedule: Q#B X027 (ip), vehicle: water): 108 % of control
T/C ([2]; dose: 67.0 mg/kg/injection, schedule: Q#B X027 (ip)): 68 % of control
T/C ([2]; dose: 133.0 mg/kg/injection, schedule: Q#B X027 (ip)): 58 % of control
T/C ([2]; dose: 200.0 mg/kg/injection, schedule: Q01DX009 (ip)): 60 % of control
T/C ([2]; dose: 200.0 mg/kg/injection, schedule: Q#B X027 (ip)): 57 % of control
T/C ([2]; dose: 267.0 mg/kg/injection, schedule: Q#B X027 (ip)): 41 % of control

Cn1cnc([N+](=O)[O-])c1Sc1nc(N)nc2nc[nH]c12
T/C ([1]; dose: 1.3 mg/kg/injection, schedule: Q01DX Z (sc), vehicle: methylcellulose (MC)): 110 % of control
T/C ([1]; dose: 2.16 mg/kg/injection, schedule: Q01DX Z (sc), vehicle: methylcellulose (MC)): 90 % of control and 110 % of control
T/C ([1]; dose: 3.0 mg/kg/injection, schedule: Q01DX Z (sc), vehicle: methylcellulose (MC)): 109 % of control
T/C ([1]; dose: 3.6 mg/kg/injection, schedule: Q01DX Z (oral), vehicle: methylcellulose (MC)): 100 % of control
T/C ([1]; dose: 3.6 mg/kg/injection, schedule: Q01DX Z (sc), vehicle: methylcellulose (MC)): 100 % of control
T/C ([1]; dose: 5.0 mg/kg/injection, schedule: Q01DX Z (sc), vehicle: methylcellulose (MC)): 118 % of control
T/C ([1]; dose: 6.0 mg/kg/injection, schedule: Q01DX Z (oral), vehicle: methylcellulose (MC)): 109 % of control
T/C ([1]; dose: 8.4 mg/kg/injection, schedule: Q01DX Z (oral), vehicle: methylcellulose (MC)): 109 % of control
T/C ([1]; dose: 10.0 mg/kg/injection, schedule: Q01DX Z (oral), vehicle: methylcellulose (MC)): 100 % of control
T/C ([1]; dose: 14.0 mg/kg/injection, schedule: Q01DX Z (oral), vehicle: methylcellulose (MC)): 122 % of control
T/C ([1]; dose: 17.0 mg/kg/injection, schedule: Q01DX Z (oral), vehicle: methylcellulose (MC)): 113 % of control
T/C ([1]; dose: 28.0 mg/kg/injection, schedule: Q01DX Z (oral), vehicle: methylcellulose (MC)): 113 % of control
T/C ([1]; dose: 47.0 mg/kg/injection, schedule: Q01DX Z (oral), vehicle: methylcellulose (MC)): 109 % of control
T/C ([1]; dose: 47.0 mg/kg/injection, schedule: Q01DX Z (sc), vehicle: methylcellulose (MC)): 150 % of control
T/C ([1]; dose: 65.0 mg/kg/injection, schedule: Q01DX Z (oral), vehicle: methylcellulose (MC)): 154 % of control
T/C ([1]; dose: 78.0 mg/kg/injection, schedule: Q01DX Z (oral), vehicle: methylcellulose (MC)): 118 % of control
T/C ([1]; dose: 108.0 mg/kg/injection, schedule: Q01DX Z (oral), vehicle: methylcellulose (MC)): 154 % of control
T/C ([1]; dose: 130.0 mg/kg/injection, schedule: Q01DX Z (oral), vehicle: methylcellulose (MC)): 113 % of control
T/C ([1]; dose: 216.0 mg/kg/injection, schedule: Q01DX Z (oral), vehicle: methylcellulose (MC)): 118 % of control

CCOC(=O)CCC(NC(=O)N(CCCl)CCCl)C(=O)OCC (centres undefined)
T/C ([1]; dose: 65.0 mg/kg/injection, schedule: Q01DX Z (sc), vehicle: water): 106 % of control
T/C ([1]; dose: 108.0 mg/kg/injection, schedule: Q01DX Z (sc), vehicle: water): 112 % of control
T/C ([1]; dose: 180.0 mg/kg/injection, schedule: Q01DX Z (sc), vehicle: water): 100 % of control
T/C ([1]; dose: 300.0 mg/kg/injection, schedule: Q01DX Z (sc), vehicle: water): 100 % of control
T/C ([1]; dose: 500.0 mg/kg/injection, schedule: Q01DX Z (sc), vehicle: water): 112 % of control
